PubChem BioAssay AID1963843 (Molecular Pharmacology Branch, DTP, NCI, 2024)

Test system: 616215-338-R-J1-PDC complex spheroid viability
Assay: Anticancer human tumor 616215-338-R-J1-PDC patient-derived colon adenocarcinoma cell line growth inhibition [POLQ]
Conditions: for IC50: curve of first compound; for viability, T/C: stronger effect = lower value
Outline: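 Complex spheroid viability model combining PDC tumour cells with endothelial (HUVEC) and MSC stromal cells. Novobiocin, ART-558 or RP6685 were tested singly and in combination with standard and investigational anticancer drugs. Each was titrated in half-log steps from near clinical Cmax, or from 10 microM where Cmax was unknown.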

[1] = second compound 0.0316 µM, first compound 0.0316 µM
[2] = second compound 0.0316 µM, first compound 0.1 µM
[3] = second compound 0.1 µM, first compound 0.0316 µM
[4] = second compound 0.1 µM, first compound 0.1 µM
[5] = second compound 0.316 µM, first compound 0.0316 µM
[6] = second compound 0.316 µM, first compound 0.1 µM
[7] = second compound 1 µM, first compound 0.0316 µM
[8] = second compound 1 µM, first compound 0.1 µM
[9] = second compound 3.16 µM, first compound 0.0316 µM
[10] = second compound 3.16 µM, first compound 0.1 µM
[11] = second compound 10 µM, first compound 0.0316 µM
[12] = second compound 10 µM, first compound 0.1 µM
[13] = second compound 0.0316 µM, first compound 0.316 µM
[14] = second compound 0.0316 µM, first compound 1 µM
[15] = second compound 0.0316 µM, first compound 3.16 µM
[16] = second compound 0.0316 µM, first compound 10 µM
[17] = second compound 0.1 µM, first compound 0.316 µM
[18] = second compound 0.1 µM, first compound 1 µM
[19] = second compound 0.1 µM, first compound 3.16 µM
[20] = second compound 0.1 µM, first compound 10 µM
[21] = second compound 0.316 µM, first compound 0.316 µM
[22] = second compound 0.316 µM, first compound 1 µM
[23] = second compound 0.316 µM, first compound 3.16 µM
[24] = second compound 0.316 µM, first compound 10 µM
[25] = second compound 1 µM, first compound 0.316 µM
[26] = second compound 1 µM, first compound 1 µM
[27] = second compound 1 µM, first compound 3.16 µM
[28] = second compound 1 µM, first compound 10 µM
[29] = second compound 3.16 µM, first compound 0.316 µM
[30] = second compound 3.16 µM, first compound 1 µM
[31] = second compound 3.16 µM, first compound 3.16 µM
[32] = second compound 3.16 µM, first compound 10 µM
[33] = second compound 10 µM, first compound 0.316 µM
[34] = second compound 10 µM, first compound 1 µM
[35] = second compound 10 µM, first compound 3.16 µM
[36] = second compound 10 µM, first compound 10 µM
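Further: spheroids exposed to compounds for one week before readout.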
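Wherever viability, T/C is given: percent viability relative to DMSO vehicle wells taken as 100%.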

Cn1ncnc1[C@H]1c2n[nH]c(=O)c3cc(F)cc(c23)N[C@@H]1c1ccc(F)cc1 + COC1C(OC(N)=O)C(O)C(Oc2ccc3c(O)c(NC(=O)c4ccc(O)c(CC=C(C)C)c4)c(=O)oc3c2C)OC1(C)C
IC50 (second compound 0.0316 µM): > 0.1 µM | IC50 (second compound 0.1 µM): > 0.1 µM | IC50 (second compound 0.316 µM): > 0.1 µM | IC50 (second compound 1 µM): > 0.1 µM | IC50 (second compound 3.16 µM): > 0.1 µM | IC50 (second compound 10 µM): > 0.1 µM | viability, T/C (second compound 0.0316 µM, first compound 0.000316 µM): 103% | viability, T/C (second compound 0.0316 µM, first compound 0.001 µM): 107% | viability, T/C (second compound 0.0316 µM, first compound 0.00316 µM): 105% | viability, T/C (second compound 0.0316 µM, first compound 0.01 µM): 107% | viability, T/C [1]: 102% | viability, T/C [2]: 102% | viability, T/C (second compound 0.1 µM, first compound 0.000316 µM): 97.2% | viability, T/C (second compound 0.1 µM, first compound 0.001 µM): 90.8% | viability, T/C (second compound 0.1 µM, first compound 0.00316 µM): 102% | viability, T/C (second compound 0.1 µM, first compound 0.01 µM): 103% | viability, T/C [3]: 101% | viability, T/C [4]: 109% | viability, T/C (second compound 0.316 µM, first compound 0.000316 µM): 95.5% | viability, T/C (second compound 0.316 µM, first compound 0.001 µM): 106% | viability, T/C (second compound 0.316 µM, first compound 0.00316 µM): 98.9% | viability, T/C (second compound 0.316 µM, first compound 0.01 µM): 104% | viability, T/C [5]: 109% | viability, T/C [6]: 95.9% | viability, T/C (second compound 1 µM, first compound 0.000316 µM): 106% | viability, T/C (second compound 1 µM, first compound 0.001 µM): 95.7% | viability, T/C (second compound 1 µM, first compound 0.00316 µM): 108% | viability, T/C (second compound 1 µM, first compound 0.01 µM): 105% | viability, T/C [7]: 107% | viability, T/C [8]: 104% | viability, T/C (second compound 3.16 µM, first compound 0.000316 µM): 109% | viability, T/C (second compound 3.16 µM, first compound 0.001 µM): 98.5% | viability, T/C (second compound 3.16 µM, first compound 0.00316 µM): 102% | viability, T/C (second compound 3.16 µM, first compound 0.01 µM): 101% | viability, T/C [9]: 102% | viability, T/C [10]: 105% | viability, T/C (second compound 10 µM, first compound 0.000316 µM): 105% | viability, T/C (second compound 10 µM, first compound 0.001 µM): 101% | viability, T/C (second compound 10 µM, first compound 0.00316 µM): 103% | viability, T/C (second compound 10 µM, first compound 0.01 µM): 117% | viability, T/C [11]: 105% | viability, T/C [12]: 97.1%

COc1cc2cc(C(=O)CCC(=O)O)sc2cc1OC + Nc1ccc(C#CCN(C(=O)Cc2ncc(C(F)(F)F)cc2C(F)(F)F)c2ccc(F)cc2)nn1
IC50 (second compound 0.0316 µM): > 10 µM | IC50 (second compound 0.1 µM): > 10 µM | IC50 (second compound 0.316 µM): > 10 µM | IC50 (second compound 1 µM): > 10 µM | IC50 (second compound 3.16 µM): > 10 µM | IC50 (second compound 10 µM): > 10 µM | viability, T/C [1]: 109% | viability, T/C [2]: 105% | viability, T/C [13]: 110% | viability, T/C [14]: 108% | viability, T/C [15]: 109% | viability, T/C [16]: 102% | viability, T/C [3]: 108% | viability, T/C [4]: 106% | viability, T/C [17]: 117% | viability, T/C [18]: 104% | viability, T/C [19]: 119% | viability, T/C [20]: 108% | viability, T/C [5]: 112% | viability, T/C [6]: 108% | viability, T/C [21]: 105% | viability, T/C [22]: 108% | viability, T/C [23]: 113% | viability, T/C [24]: 99.9% | viability, T/C [7]: 110% | viability, T/C [8]: 102% | viability, T/C [25]: 101% | viability, T/C [26]: 113% | viability, T/C [27]: 115% | viability, T/C [28]: 102% | viability, T/C [9]: 108% | viability, T/C [10]: 101% | viability, T/C [29]: 108% | viability, T/C [30]: 103% | viability, T/C [31]: 107% | viability, T/C [32]: 101% | viability, T/C [11]: 95.3% | viability, T/C [12]: 91.1% | viability, T/C [33]: 86.8% | viability, T/C [34]: 97.2% | viability, T/C [35]: 89.3% | viability, T/C [36]: 79.2%

O=C(Nc1ccc(O)c(NS(=O)(=O)c2ccc(F)cc2)c1)c1ccc(-c2ccccc2)cc1 + Nc1ccc(C#CCN(C(=O)Cc2ncc(C(F)(F)F)cc2C(F)(F)F)c2ccc(F)cc2)nn1
IC50 (second compound 0.0316 µM): 9.93 µM | IC50 (second compound 0.1 µM): > 10 µM | IC50 (second compound 0.316 µM): > 10 µM | IC50 (second compound 1 µM): > 10 µM | IC50 (second compound 3.16 µM): > 10 µM | IC50 (second compound 10 µM): 6.56 µM | viability, T/C [1]: 108% | viability, T/C [2]: 105% | viability, T/C [13]: 105% | viability, T/C [14]: 104% | viability, T/C [15]: 119% | viability, T/C [16]: 49.7% | viability, T/C [3]: 108% | viability, T/C [4]: 105% | viability, T/C [17]: 114% | viability, T/C [18]: 105% | viability, T/C [19]: 100% | viability, T/C [20]: 56% | viability, T/C [5]: 108% | viability, T/C [6]: 107% | viability, T/C [21]: 103% | viability, T/C [22]: 104% | viability, T/C [23]: 96.6% | viability, T/C [24]: 72.6% | viability, T/C [7]: 105% | viability, T/C [8]: 106% | viability, T/C [25]: 106% | viability, T/C [26]: 101% | viability, T/C [27]: 91.2% | viability, T/C [28]: 54% | viability, T/C [9]: 106% | viability, T/C [10]: 103% | viability, T/C [29]: 102% | viability, T/C [30]: 102% | viability, T/C [31]: 76.5% | viability, T/C [32]: 50.7% | viability, T/C [11]: 93.9% | viability, T/C [12]: 84.2% | viability, T/C [33]: 93.2% | viability, T/C [34]: 105% | viability, T/C [35]: 85.8% | viability, T/C [36]: 29.3%
